Patent US20240109903A1, “SUBSTITUTED HETEROCYCLES FOR TREATING CANCER” (Northwestern University, priority 2022, published 2024)

Assays:
HL-60(TB) = assay: NCI 60 five-dose screen HL-60(TB); type: cell-based; details: Homo sapiens
K-562 = assay: NCI 60 five-dose screen K-562; type: cell-based; details: Homo sapiens
MOLT-4 = assay: NCI 60 five-dose screen MOLT-4; type: cell-based; details: Homo sapiens
SR = assay: NCI 60 five-dose screen SR; type: cell-based, human
A549/ATCC = assay: NCI 60 five-dose screen A549/ATCC; type: cell-based; details: Homo sapiens
HOP-92 = assay: NCI 60 five-dose screen HOP-92; type: cell-based; details: Homo sapiens
NCI-H322M = assay: NCI 60 five-dose screen NCI-H322M; type: cell-based; details: Homo sapiens
COLO 205 = assay: NCI 60 five-dose screen COLO 205; type: cell-based; details: Homo sapiens
HCC-2998 = assay: NCI 60 five-dose screen HCC-2998; type: cell-based; details: Homo sapiens
HCT-15 = assay: NCI 60 five-dose screen HCT-15; type: cell-based; details: Homo sapiens
HT29 = assay: NCI 60 five-dose screen HT29; type: cell-based; details: Homo sapiens
KM12 = assay: NCI 60 five-dose screen KM12; type: cell-based; details: Homo sapiens
SF-268 = assay: NCI 60 five-dose screen SF-268; type: cell-based; details: Homo sapiens
SF-295 = assay: NCI 60 five-dose screen SF-295; type: cell-based; details: Homo sapiens
SF-539 = assay: NCI 60 five-dose screen SF-539; type: cell-based; details: Homo sapiens
SNB-19 = assay: NCI 60 five-dose screen SNB-19; type: cell-based; details: Homo sapiens
LOX IMVI = assay: NCI 60 five-dose screen LOX IMVI; type: cell-based; details: Homo sapiens
MALME-3M = assay: NCI 60 five-dose screen MALME-3M; type: cell-based; details: Homo sapiens, Malme-3M
SK-MEL-2 = assay: NCI 60 five-dose screen SK-MEL-2; type: cell-based; details: Homo sapiens
IGROV1 = assay: NCI 60 five-dose screen IGROV1; type: cell-based; details: Homo sapiens
OVCAR-8 = assay: NCI 60 five-dose screen OVCAR-8; type: cell-based; details: Homo sapiens
786-0 = assay: NCI 60 five-dose screen 786-0; type: cell-based; details: Homo sapiens
CAKI-1 = assay: NCI 60 five-dose screen CAKI-1; type: cell-based; details: Homo sapiens
RXF 393 = assay: NCI 60 five-dose screen RXF 393; type: cell-based; details: Homo sapiens
SN12C = assay: NCI 60 five-dose screen SN12C; type: cell-based; details: Homo sapiens
TK-10 = assay: NCI 60 five-dose screen TK-10; type: cell-based; details: Homo sapiens
MCF7 = assay: NCI 60 five-dose screen MCF7; type: cell-based; details: Homo sapiens
MDA-MB-231/ATCC = assay: NCI 60 five-dose screen MDA-MB-231/ATCC; type: cell-based; details: Homo sapiens
[1] = read-out: LC50 (the source's name) (converted)

O=c1ccc(Cn2c(C(F)(F)F)cc3c(Cl)ncnc32)c[nH]1 [NUCC-0226698]
GI50 (HL-60(TB)): 2.09 µM | IC50 (HL-60(TB)): 3.63 µM | IC (TGI) (HL-60(TB)): 6.03 µM | CC50 (HL-60(TB); [1]): ≥ 100 µM | GI50 (K-562; K562): 2.82 µM | IC50 (K-562; K562): 3.39 µM | IC (TGI) (K-562; K562): 100 µM | CC50 (K-562; K562, read-out: LC50 (the source's name)): ≥ 100 µM | GI50 (MOLT-4): 3.24 µM | IC50 (MOLT-4): 4.79 µM | IC (TGI) (MOLT-4): 17 µM | CC50 (MOLT-4; read-out: LC50 (the source's name)): ≥ 100 µM | TGI (SR): 4.93 −log[M] | GI50 (SR; Homo sapiens): 2.75 µM | IC50 (SR; Homo sapiens): 3.89 µM | CC50 (SR; Homo sapiens, read-out: LC50 (the source's name)): ≥ 100 µM | GI50 (A549/ATCC): 64.6 µM | IC50 (A549/ATCC): 100 µM | IC (TGI) (A549/ATCC): 100 µM | CC50 (A549/ATCC; [1]): ≥ 100 µM | GI50 (HOP-92): 22.9 µM | IC50 (HOP-92): 100 µM | IC (TGI) (HOP-92): 100 µM | CC50 (HOP-92; [1]): ≥ 100 µM | GI50 (NCI-H322M): 14.1 µM | IC50 (NCI-H322M): 32.4 µM | IC (TGI) (NCI-H322M): 39.8 µM | CC50 (NCI-H322M; [1]): ≥ 100 µM | GI50 (COLO 205): 87.1 µM | IC50 (COLO 205): 100 µM | IC (TGI) (COLO 205): 100 µM | CC50 (COLO 205; [1]): ≥ 100 µM | GI50 (HCC-2998): 2.88 µM | IC50 (HCC-2998): 5.25 µM | IC (TGI) (HCC-2998): 10 µM | CC50 (HCC-2998; [1]): 34.7 µM | GI50 (HCT-15): 2.95 µM | IC50 (HCT-15): 3.8 µM | IC (TGI) (HCT-15): 14.8 µM | CC50 (HCT-15; [1]): ≥ 100 µM | GI50 (HT29; HT-29): 28.8 µM | IC50 (HT29; HT-29): 38 µM | IC (TGI) (HT29; HT-29): 100 µM | CC50 (HT29; HT-29, read-out: LC50 (the source's name) (converted)): ≥ 100 µM | GI50 (KM12): 17.8 µM | IC50 (KM12): 30.2 µM | IC (TGI) (KM12): 39.8 µM | CC50 (KM12; [1]): 91.2 µM | GI50 (SF-268): 10.7 µM | IC50 (SF-268): 20.9 µM | IC (TGI) (SF-268): 28.8 µM | CC50 (SF-268; [1]): 79.4 µM | GI50 (SF-295): 28.2 µM | IC50 (SF-295): 50.1 µM | IC (TGI) (SF-295): 100 µM | CC50 (SF-295; [1]): ≥ 100 µM | GI50 (SF-539): 17.4 µM | IC50 (SF-539): 32.4 µM | IC (TGI) (SF-539): 40.7 µM | CC50 (SF-539; [1]): 95.5 µM | GI50 (SNB-19): 20.9 µM | IC50 (SNB-19): 39.8 µM | IC (TGI) (SNB-19): 58.9 µM | CC50 (SNB-19; [1]): ≥ 100 µM | GI50 (LOX IMVI): 1.66 µM | IC50 (LOX IMVI): 2.88 µM | IC (TGI) (LOX IMVI): 3.09 µM | CC50 (LOX IMVI; [1]): 5.89 µM | GI50 (MALME-3M): 15.8 µM | IC50 (MALME-3M): 36.3 µM | IC (TGI) (MALME-3M): 34.7 µM | CC50 (MALME-3M; [1]): 77.6 µM | GI50 (SK-MEL-2): 17 µM | IC50 (SK-MEL-2): 33.1 µM | IC (TGI) (SK-MEL-2): 32.4 µM | CC50 (SK-MEL-2; [1]): 63.1 µM | GI50 (IGROV1; IGROV-1): 2.29 µM | IC50 (IGROV1; IGROV-1): 3.72 µM | IC (TGI) (IGROV1; IGROV-1): 6.03 µM | CC50 (IGROV1; IGROV-1, read-out: LC50 (the source's name) (converted)): 26.3 µM | GI50 (OVCAR-8): 3.55 µM | IC50 (OVCAR-8): 4.79 µM | IC (TGI) (OVCAR-8): 17.4 µM | CC50 (OVCAR-8; [1]): ≥ 100 µM | GI50 (786-0): 43.7 µM | IC50 (786-0): 72.4 µM | IC (TGI) (786-0): 100 µM | CC50 (786-0; [1]): ≥ 100 µM | GI50 (CAKI-1): 23.4 µM | IC50 (CAKI-1): 42.7 µM | IC (TGI) (CAKI-1): 100 µM | CC50 (CAKI-1; [1]): ≥ 100 µM | GI50 (RXF 393): 11.2 µM | IC50 (RXF 393): 35.5 µM | IC (TGI) (RXF 393): 32.4 µM | CC50 (RXF 393; [1]): 91.2 µM | GI50 (SN12C): 6.46 µM | IC50 (SN12C): 11.7 µM | IC (TGI) (SN12C): 23.4 µM | CC50 (SN12C; [1]): 69.2 µM | GI50 (TK-10): ≥ 100 µM | IC50 (TK-10): 100 µM | IC (TGI) (TK-10): 100 µM | CC50 (TK-10; [1]): ≥ 100 µM | GI50 (MCF7): 20.9 µM | IC50 (MCF7): 32.4 µM | IC (TGI) (MCF7): 67.6 µM | CC50 (MCF7; [1]): ≥ 100 µM | GI50 (MDA-MB-231/ATCC): 4.68 µM | IC50 (MDA-MB-231/ATCC): 10 µM | IC (TGI) (MDA-MB-231/ATCC): 18.2 µM | CC50 (MDA-MB-231/ATCC; [1]): 57.5 µM
